The test system of assay [1] is hGLP-1R mutant Asn318 to alanine. Further details: method as in PMID 23479653. The conditions noted are these: Asn318 mutated to alanine, cell surface expression unchanged; cited from earlier work.
The subject of assay [2] is zfGPCR (dual zfGLP-1R/GCGR). The assay can be described thus: Intracellular cAMP in COS-7 cells expressing recombinant zfGPCR. Format: cell-based, zebrafish (Danio rerio). To be noted: for EC50: 20 min at 37°C, pH 7.4, 1 mM 1-methyl-3-isobutylxanthine, enzyme immunoassay, n = 9 zfGLP-1, n = 5 hGLP-1, zf glucagon, h glucagon, n = 3 exendin-4, n = 6 zfGLP-2. 95% CI: zfGLP-1 0.24–0.80, hGLP-1 0.65–1.63, zf glucagon 0.20–2.9, h glucagon 0.18–1.63, exendin-4 0.07–0.46, zfGLP-2 16.8–72.6. Here is the method: The ability of different peptides to stimulate the increase in intracellular cAMP levels following their binding to the recombinant zfGPCR transiently expressed in COS-7 cells was measured using methods that we developed for non-mammalian G-protein coupled receptors. In brief, COS-7 cells were grown to confluence in 100-mm plates at 37°C and transfected with the pcDNA3 vector containing the recombinant zfGPCR using the TransFast transfection reagent (Promega, Madison, WI) at a […] of plasmid DNA (25 ug) to transfection reagent (75 μL). After 24 h cells were trypsynized and transferred to 24-well plates (Biocore, Becton-Dickinson, Franklin Lakes, NJ). Peptides (pM-μM) were added 24–48 h later. Cells were equilibrated prior to the addition of peptides with the assay buffer (DMEM, 0.5% BSA, 20mM HEPES, 1mM 1-methyl-3-isobutylxanthine, 0.1mM phenylmethylsulfonyl fluoride, pH 7.4) for 20 min at 37°C. Each peptide concentration was added in triplicate wells for 20 min at 37°C. cAMP dose-response curves for each tested peptide were obtained in a single 24-well plate. In all experiments, forskolin (100 nM) (Sigma-Aldrich, St.Louis, MO) was added as a positive control, also in triplicate wells, in the same 24-well plate as the tested peptide. After incubation, the media was removed and cells were lysed by the addition of cold ethanol (1 mL per well). Cell debris was pelleted by centrifugation (10,000 g) for 10-min, and supernatants were dried using a vacuum concentrator. Samples were resuspended in an assay buffer provided by the manufacturer and cAMP levels were quantified by the enzyme immunoassay kit (Cayman Chemicals, Ann Arbor, MI) according to the manufacturer’s instructions. The basal concentration of cAMP (in the absence of peptides) was taken as 1.00, and was in the range of 9–16 pmol/well. Results are presented as a fold-increase over basal.
Results were plotted by the Origin 9 software (OriginLab), and EC50 values were calculated by Prism 4 software as described below.
(§1) Results from the functional experiments with recombinant zfGPCR transiently expressed in COS-7 cells were analyzed by the Prism 4 software using a four-parameter logistic sigmoidal curve fit model. Data points represent mean +/- SEM.
They are shown together with the 95% confidence intervals (CIs).
Comparison of EC50 values calculated from the zfGLP-1 cAMP dose-response curve with the EC50 calculated from the cAMP dose-response curves for each of the tested peptides were performed by the F-test from the Prism 4 software which compares the fitted mid-point (EC50) from the data sets of the two dose-response curves under comparison. Conditions of analysis were as follows: (i) in the normalization step y = 0% was set to be 1 (the basal cAMP concentration taken as 1); y = 100% was set to be the largest value in each data set; (ii) constrained curve-fit parameters were set to be equal to 0.00 on the bottom, 100 on top; (iii) EC50 was not constrained; (iv) the selected option in the non-linear regression curve fit was intended on finding out whether the best-fit of a selected parameter (EC50) differs between two sets.

Assay [3] has as its system hGLP-1R mutant Ser155 to alanine. To be noted: Ser152 in hGCGR = Ser155 in hGLP-1R, mutated to alanine; cited from earlier work. The text has this:
Among those are TM1-TM7 interaction between Ser152^1.50 and Ser 390^7.47 in which Ser152^1.50 in TM1 in hGCGR forms a hydrogen bond with the backbone of Ser390^7.47 in TM7.

Assay [4] relates to zfGPCR (dual zfGLP-1R/GCGR). The assay can be described thus: Competitive binding, displacement of 125I-hGLP-1(7–36)amide from recombinant zfGPCR expressed in COS-7 cells. Set-up: species or system zebrafish (Danio rerio). To be noted: 125I-hGLP-1(7–36)amide tracer, intact COS-7 cells, 16–18 h at 4°C, triplicate wells; NSB with 1 μM peptide; n = 3 hGLP-1, n = 2 zf glucagon, exendin-4, exendin(9–39), n = 1 zfGLP-1. 95% CI: zfGLP-1 1.2–3.6; hGLP-1 0.98–13; zf glucagon 1.4–4.0; exendin-4 0.24–0.92; exendin(9–39) 2.4–14. Here is the method: (§2) Competitive binding experiments were performed with the recombinant zfGPCR expressed in COS-7 cells, as described previously. Transient transfections of pcDNA3 vector containing recombinant zfGPCR into COS-7 cells were performed as described below for the stimulation of intracellular cAMP. Cells were grown in 100-mm plates to confluence and 24 hr after transfection they were trypsinized and transferred to 24 well plates (Biocore, Becton Dickinson). 24–48 hr later each peptide (pM to μM) was added in triplicate wells followed by the addition of an aliquot (100,000 cpm/well) of either ^125I-hGLP-1(7–36)amide or ^125I-exendin(9–39) (each radioactive peptide tracer at […] receptor grade, NEN Life Science Products, Boston, MA). Peptides, radioiodinated ^125I-tracer and cells were incubated for 16–18 h at 4°C. After incubation cells were washed twice with ice-cold PBS, lysed with 1N NaOH and radioactivity measured in a γ-counter. A single dose-displacement curve for each peptide was obtained in a single 24-well plate.
Dose-response curves for zfGLP-1, zfGLP-2 and zebrafish PACAP-38 were obtained from one transfection. […] Lower rounds of transfections were performed in experiments that replicated our published results from the competitive binding experiments with the displacement of ^125I-hGLP-1(7–36)amide binding to zfGPCR [41] and thus represented positive controls for these studies.
(§3) IC50 values represent an average of n experiments as described above and were calculated by the Prism 4 software. Displacement curves from the competitive binding experiments were plotted by Origin 9 software (OriginLab). Error bars are shown for data points in the displacement curves obtained in two or more rounds of transfections.
as §1
They are shown together with the 95% confidence intervals (CIs). […]

Assay [5] relates to zfGPCR (dual zfGLP-1R/GCGR). The assay can be described thus: Competitive binding, displacement of 125I-exendin(9–39) from recombinant zfGPCR expressed in COS-7 cells. Set-up: species or system zebrafish (Danio rerio). The conditions noted are these: 125I-exendin(9–39) tracer, intact COS-7 cells, 16–18 h at 4°C, triplicate wells, NSB with 1 μM peptide, n = 4 zfGLP-1, n = 3 hGLP-1, zf glucagon, exendin-4, n = 5 exendin(9–39). 95% CI: zfGLP-1 225–371, hGLP-1 121–262, zf glucagon 78.5–144, h glucagon 33.6–134, exendin-4 0.84–1.17, exendin(9–39) 3.42–5.17. As to the method: as §2
Non-specific binding was determined in the presence of 1μM of each peptide.
as §3, §1
They are shown together with the 95% confidence intervals (CIs). The F-test was used to compare the IC50 value for zfGLP-1 with the IC50 values for the other tested peptides obtained in the competitive binding experiments shown when ^125I-hGLP-1(7–36)amide or ^125I-exendin (9–39) were used as tracers. Following conditions were used for the curve fitting: (i) in the normalization step y = 0%was set to be 0, y = 100% was set to be 100; (ii) constrained curve-fit parameters were set to be equal to 0.00 on the bottom, 100 on top; (iii) IC50 was not constrained; (iv) the selected option in the non-linear regression curve fit was intended on finding out whether the best-fit of a selected parameter (IC50) differs between two sets.
For orientation: Loss of bound radioactivity is the signal in a displacement assay; it reports binding, not function.

In assay [6] the test system is zfGPCR (dual zfGLP-1R/GCGR). To be noted: displacement of 125I-hGLP-1(7–36)amide; read-out: IC50 in competitive binding (earlier characterization of the zfGPCR); cited from earlier work. As to the method: Furthermore, exendin-4, an agonist of hGLP-1R, displaced in competitive binding experiments the binding of ^125I-hGLP-1(7–36) amide to the zebrafish receptor with an IC50 of 0.9 nM, which is within a similar concentration range as the one determined in competitive binding experiments with recombinant hGLP-1R [41] and rGLP-1R [23]. However, subsequent phylo ...

In assay [7] the target is recombinant rat glucagon receptor. The conditions noted are these: cited from earlier work. Here is the method: (§4) Moreover, EC50’s for human and zebrafish glucagon obtained in our study were within similar concentration range as the EC50 ‘s determined in experiments with recombinant glucagon receptors from other vertebrate species. Thus, EC50‘s for human glucagon obtained from the cAMP assays performed with the recombinant glucagon receptor from the frog and the recombinant rat glucagon receptor were 0.8 nM [19] and 0.7nM [13], respectively, and are similar to the EC50 value of 1nM determined for the glucagon receptor in rat hepatocytes.

In assay [8] the target is recombinant glucagon receptor from the frog. To be noted: cited from earlier work. As to the method:
as §4

In assay [9] the target is glucagon receptor in rat hepatocytes. To be noted: cited from earlier work. As to the method:
as §4

For assay [10], the system named is hGCGR mutant Cys240 to Tyr240. The conditions noted are these: cited from earlier work. The text has this: In the 7TM crystal structure of hGCGR [30], the side chain of Tyr239^3.44 in TM3 interacts with the backbone atoms of Gly359^6.50 (3.5Å) and Leu358^6.49 (2.8Å) in TM6. Tyr239^3.44 is conserved only in hGLP-1R and is substituted with Asn23 ...
Assay [11] deals with hGCGR mutant Glu362 to alanine. The conditions noted are these: reduced surface expression; cited from earlier work. The text has this:
Our inspection of the 7TM crystal structure of hGCGR [30] also identified a hydrophilic cluster formed by a salt bridge between Lys187^2.60 in TM2 and Glu362^6.53 in TM6, and hydrophilic portions of residues Tyr149^1.47 in TM1, Gln232^2.38, Asp238^2.43, […] in TM2; His361^6.52 in TM6, and Asp385^7.42, Ser389^7.46 Gln392^7.49 in TM7. This TM7-TM6-TM2-TM1 cluster offers a hydrophilic environment embedded deep inside the hydrophobic transmembrane.

In assay [12] the test system is recombinant hGCGR. Set-up: method as in PMID 7507321. The conditions noted are these: cited from earlier work.
In assay [13] the test system is goldfish GCGR. The conditions noted are these: 95% CI: goldfish glucagon 1.3–7 nM; human glucagon 4.7–20 nM; cited from earlier work. The text has this:
In those studies the EC50 for goldfish glu ...

In assay [14] the target is recombinant glucagon receptor from the frog R. tigrina rugulosa. Set-up: method as in PMID 10471837. The conditions noted are these: cited from earlier work.
Assay [15] concerns GLP-1R. The conditions noted are these: cited from earlier work. The text has this: Receptors for GLP-1 (GLP-1R) and glucagon (GCGR) belong to the class B GPCRs that mediate the physiological effects of the peptides within the glucagon-secretin peptide family. Their structures are characterized by large amino terminal extracellular domains which are about 140 amino acids long and an intracellular core consisting of a cytoplasmic domain and seven transmembrane helices (7TMs) connected through three extracellular and three intracellular loops.

Assay [16] concerns fish hepatocytes. To be noted: GLP-1 from both human and fish; cited from earlier work. An excerpt: Our approach to understanding the selectivity of ligand recognition by the receptors for the gluco-regulatory peptides, GLP-1 and glucagon, has been to functionally characterize the ligand selectivity of GCGRs and GLP-1Rs from non-mammalian vertebrates and to compare them to the ligand selectivity of their mammalian counterparts. […] In the abs ...

Assay [17] addresses recombinant glucagon receptor from the goldfish C. auratus (gfGCGR). The conditions noted are these: 95% CI: zebrafish glucagon 4.3–18 nM; goldfish glucagon 0.31–1 nM; cited from earlier work. An excerpt:
To be consistent with our initial characterization of this receptor which we referred to as zfGLP-1R [41] and the characterization of the gfGCGR [18] we used only the sequences of zfGLP-1 and zf glucagon used in those studies (shown in Fig 1) and not the second zfGLP-1 and second zebrafish glucagon found in the zebrafish genome.

Like-named read-outs stand apart in the source and are kept apart here.

In general, EC50 refers to the concentration needed to bring the measured effect to its halfway point. A word on the IC50: it is the concentration that inhibits the measured activity by half. For “hGLP-1: Synthetic hGLP-1(7–36)amide (referred throughout as hGLP-1), purchased from Bachem”, the values for the receptor affinity entry in [1] and in assay [3] were “reduced the receptor’s affinity” and “small reduction of receptor affinity”, respectively. For the same substance, in assay [2], the EC50 was determined as 1 nM. Moreover, the IC50 in assay [4] was 3.6 nM; in assay [5], 178 nM; in [6], 0.9 nM.
Turning to “human glucagon: synthetic human glucagon purchased from Bachem”, the EC50 in assay [7] is 0.7 nM; in [8], 0.8 nM; in assay [9] it was 1 nM; in assay [2] it was 0.54 nM; in assay [13], 9.7 nM. Moreover, the “effect of mutation on binding to glucagon” value in [10] is reported as “did not have an effect”. For the same substance, the IC50 in assay [5] is 67 nM; in assay [12], 5 nM; in [14], 12 nM. Also, in [11], the “effect of mutation on binding of glucagon” value is listed as “decrease in the binding”.
For the substance “GLP-1: refers to both GLP-1(7–37) and GLP-1(7–36)amide”, in [15], the “stimulation of intracellular cAMP, GLP-1 vs exendin-4” value is listed as “to a similar degree”. In [16], the gluconeogenesis entry is reported as “stimulated gluconeogenesis”.
On to exendin(9–39), for which the receptor affinity result in assay [1] was “reduced the receptor’s affinity”. Besides, the “behaviour at the zfGPCR” value in [2] (cAMP assay) is given as “behaved as an antagonist”. Further, in assay [2] (even at 1μM, n = 4), the “stimulatory effect on cAMP levels” value was “did not show any stimulatory effects”. Also, the IC50 in assay [4] was determined as 5.8 nM; in [5], 4.21 nM.
“goldfish glucagon: glucagon of goldfish, literature comparison (HSEGTFSNDYSKYLETRRAQDFVEWLMNS; Glucagon; UniProt P79695 50-78, looked up)”: the EC50 in assay [13] is 3 nM. In addition, the IC50 in assay [17] was 0.56 nM.
